Experiments:
Assay in all cases: RBC HotSpot Kinase Assay (33P-ATP filter-binding)
Type in all cases: biochemical
Conditions in all cases: 10 μM ATP
FGFR3 = FGFR3 (Homo sapiens (Human), UniProt P22607)
Experimental: (§1) Biochemical Assay. […] The reaction buffer was 20 mM HEPES (pH 7.5), 10 mM MgCl2, 1 mM EGTA, 0.02% Brij35, 0.02 mg/mL BSA, 0.1 mM Na3VO4, 2 mM DTT, 1% DMSO. The required cofactors are added individually to each kinase reaction. […] The substrate was Poly (Glu, Tyr) sodium salt and the concentration was 0.2 mg/mL (Sigma; cat. #P7244) where the Glu:Tyr (4:1) molecular weight was 5,000-20,000. […] Reactions were carried out at 10 μM ATP. The serial dilution was conducted by Integra Viaflo Assist in DMSO. The reaction procedure was conducted as follows: • 1) Prepare substrate in freshly prepared Reaction Buffer. • 2) MnCl2 (2 mM) was added as a co-factor listed as above. • 3) Deliver kinase into the substrate solution and gently mix. • 4) Deliver compounds in 100% DMSO into the kinase reaction mixture by Acoustic technology (Echo550; nanoliter range), incubate for 20 min at RT. • 5) Deliver 33P-ATP (specific activity 10 μCi/μL) into the reaction mixture to initiate the reaction. • 6) Incubate for 2 hours at RT. • 7) Detect radioactivity by the filter-binding method. • 8) Kinase activity data was expressed as the percent remaining kinase activity in the test sample compared to vehicle (DMSO) reactions.

FGFR4 = FGFR4 (Homo sapiens (Human), UniProt P22455)
Experimental: as §1

FGFR2 = FGFR2 (Homo sapiens (Human), UniProt P21802)
Experimental: as §1

Chain of FGFR4 (P22455 22-802): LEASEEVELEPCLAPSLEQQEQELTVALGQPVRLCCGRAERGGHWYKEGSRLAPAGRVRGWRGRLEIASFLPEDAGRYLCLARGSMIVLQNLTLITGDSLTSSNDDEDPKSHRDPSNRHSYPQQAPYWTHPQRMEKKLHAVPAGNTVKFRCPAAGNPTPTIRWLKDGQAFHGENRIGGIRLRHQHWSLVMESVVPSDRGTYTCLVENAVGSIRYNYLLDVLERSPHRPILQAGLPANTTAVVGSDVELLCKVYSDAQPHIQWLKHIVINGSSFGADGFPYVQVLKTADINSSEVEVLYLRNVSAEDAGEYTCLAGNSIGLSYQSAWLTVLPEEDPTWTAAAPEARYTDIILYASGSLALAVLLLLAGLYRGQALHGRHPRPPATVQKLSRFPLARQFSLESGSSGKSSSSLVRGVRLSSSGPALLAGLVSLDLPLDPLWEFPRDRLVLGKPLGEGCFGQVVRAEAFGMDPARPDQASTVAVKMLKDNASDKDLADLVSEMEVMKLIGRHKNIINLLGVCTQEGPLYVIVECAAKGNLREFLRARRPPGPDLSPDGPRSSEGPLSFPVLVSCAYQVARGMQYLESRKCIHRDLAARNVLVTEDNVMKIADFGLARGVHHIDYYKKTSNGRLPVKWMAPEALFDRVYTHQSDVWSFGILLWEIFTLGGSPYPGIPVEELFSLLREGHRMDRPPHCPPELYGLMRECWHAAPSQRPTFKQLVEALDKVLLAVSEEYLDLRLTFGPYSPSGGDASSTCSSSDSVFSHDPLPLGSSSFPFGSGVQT
Chain of FGFR2 (P21802 22-821): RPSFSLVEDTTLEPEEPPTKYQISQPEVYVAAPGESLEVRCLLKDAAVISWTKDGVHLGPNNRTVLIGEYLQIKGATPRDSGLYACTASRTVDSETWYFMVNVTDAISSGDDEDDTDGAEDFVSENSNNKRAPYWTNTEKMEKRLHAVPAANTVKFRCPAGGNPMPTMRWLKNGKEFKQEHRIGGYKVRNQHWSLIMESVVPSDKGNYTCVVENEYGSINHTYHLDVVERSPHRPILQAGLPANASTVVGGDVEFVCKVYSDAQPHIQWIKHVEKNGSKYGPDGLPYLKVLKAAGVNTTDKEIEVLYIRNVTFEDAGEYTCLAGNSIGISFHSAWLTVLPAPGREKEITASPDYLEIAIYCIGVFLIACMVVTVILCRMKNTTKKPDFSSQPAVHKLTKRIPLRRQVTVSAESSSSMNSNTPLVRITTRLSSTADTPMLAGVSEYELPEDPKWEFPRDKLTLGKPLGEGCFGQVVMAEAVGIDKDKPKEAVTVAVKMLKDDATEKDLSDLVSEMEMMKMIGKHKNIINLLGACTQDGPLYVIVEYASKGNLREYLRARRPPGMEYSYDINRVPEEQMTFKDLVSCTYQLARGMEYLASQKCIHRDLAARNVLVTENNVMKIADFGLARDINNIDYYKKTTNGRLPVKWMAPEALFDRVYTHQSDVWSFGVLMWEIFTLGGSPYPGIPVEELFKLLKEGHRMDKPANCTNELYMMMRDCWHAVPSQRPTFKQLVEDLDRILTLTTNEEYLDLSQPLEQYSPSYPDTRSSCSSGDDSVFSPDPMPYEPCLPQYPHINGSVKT
Chain of FGFR3 (P22607 23-806): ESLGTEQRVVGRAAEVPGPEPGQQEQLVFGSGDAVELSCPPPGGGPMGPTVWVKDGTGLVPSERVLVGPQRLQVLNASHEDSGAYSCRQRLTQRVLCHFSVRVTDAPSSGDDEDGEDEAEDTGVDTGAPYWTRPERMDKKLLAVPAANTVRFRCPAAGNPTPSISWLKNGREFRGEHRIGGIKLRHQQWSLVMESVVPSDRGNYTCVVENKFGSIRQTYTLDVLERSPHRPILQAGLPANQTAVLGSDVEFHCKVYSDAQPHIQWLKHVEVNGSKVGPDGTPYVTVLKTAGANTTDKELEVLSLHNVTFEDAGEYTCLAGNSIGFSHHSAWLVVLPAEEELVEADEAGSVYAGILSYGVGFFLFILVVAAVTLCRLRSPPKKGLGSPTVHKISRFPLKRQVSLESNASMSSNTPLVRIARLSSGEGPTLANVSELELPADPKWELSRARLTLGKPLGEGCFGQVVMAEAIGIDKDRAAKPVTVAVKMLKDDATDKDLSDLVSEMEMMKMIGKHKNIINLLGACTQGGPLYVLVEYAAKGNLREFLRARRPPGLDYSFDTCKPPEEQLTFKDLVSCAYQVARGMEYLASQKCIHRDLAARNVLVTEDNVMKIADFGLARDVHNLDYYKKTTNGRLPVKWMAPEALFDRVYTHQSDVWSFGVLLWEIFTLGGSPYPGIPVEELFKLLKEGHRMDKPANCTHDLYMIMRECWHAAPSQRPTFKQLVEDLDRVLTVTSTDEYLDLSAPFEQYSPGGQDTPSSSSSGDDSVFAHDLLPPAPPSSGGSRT

IC50 (FGFR3): 7.6 nM
IC50 (FGFR4): 11 nM
IC50 (FGFR2): 4.3 nM
SMILES: COc1cc(OC)cc(N(CCNC(C)C)c2ccc3nnc(-c4cnn(C)c4)cc3c2)c1 [Example 1, N^1-(3,5-Dimethoxyphenyl)-N^2-isopropyl-N^1-(3-(1-methyl-1H-pyrazol-4-yl)cinnolin-6-yl)ethane-1,2-diamine]
